From US12077503B2, “Substituted cyclic amides and their use as herbicides” (FMC CORPORATION, priority 2015, dated 2024)

Assays:
Type in all cases: in vivo
[1] = tested on: redroot pigweed (Amaranthus retroflexus); assay: Test G Pre-Emergence Protocol; settings: Amaranthus retroflexus, pre-emergence, 312 h, evaluated after 13 days; for pest or weed control at 15.625 g/ha: 15.625 g ai/ha; for pest or weed control at 15.625 g/ha / pest or weed control at 250 g/ha: read-out: Pigweed, Redroot damage rating (100=total damage to plant; 0=no damage to plant); for pest or weed control at 62.5 g/ha: 62.5 g ai/ha, 100=total damage to plant, 0=no damage to plant, read-out: plant damage rating, Pigweed, Redroot; for pest or weed control at 250 g/ha: 250 g ai/ha
Procedure, shortened: (§1)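 Seeds were sown in standard soil and kept one day in a glasshouse (24/16° C day/night, 14 h light, 65% humidity), then sprayed with compound in acetone/water (50:50) containing 0.5% Tween 20 at 15.625, 62.5 or 250 g/ha. Damage was scored after 13 days (0 = none, 100 = total).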

[2] = tested on: corn (Zea mays); assay: Test G Pre-Emergence Protocol; settings: Zea mays, pre-emergence, 312 h, evaluated after 13 days; for plant injury at 15.625 g/ha: 15.625 g ai/ha; for plant injury at 15.625 g/ha / plant injury at 250 g/ha: read-out: Corn damage rating (100=total damage to plant; 0=no damage to plant); for plant injury at 62.5 g/ha: 62.5 g ai/ha, 100=total damage to plant, 0=no damage to plant, read-out: plant damage rating, Corn; for plant injury at 250 g/ha: 250 g ai/ha
Procedure, shortened: as §1

[3] = tested on: velvetleaf (Abutilon theophrasti); assay: Test G Pre-Emergence Protocol; settings: Abutilon theophrasti, pre-emergence, 312 h, evaluated after 13 days; for pest or weed control at 15.625 g/ha: 15.625 g ai/ha; for pest or weed control at 15.625 g/ha / pest or weed control at 250 g/ha: read-out: Velvetleaf damage rating (100=total damage to plant; 0=no damage to plant); for pest or weed control at 62.5 g/ha: 62.5 g ai/ha, 100=total damage to plant, 0=no damage to plant, read-out: plant damage rating, Velvetleaf; for pest or weed control at 250 g/ha: 250 g ai/ha
Procedure, shortened: as §1

[4] = tested on: ivy-leaved morning glory (Ipomoea hederacea); assay: Test G Pre-Emergence Protocol; settings: Ipomoea, pre-emergence, 312 h, evaluated after 13 days; for pest or weed control at 15.625 g/ha: 15.625 g ai/ha, read-out: Morning-glory, Ivy-leaved damage rating (100=total damage to plant; 0=no damage to plant); for pest or weed control at 62.5 g/ha: 62.5 g ai/ha, 100=total damage to plant, 0=no damage to plant, read-out: plant damage rating, Morningglory, Ivy-leaved; for pest or weed control at 250 g/ha: 250 g ai/ha, read-out: Morningglory, Ivy-leaved damage rating (100=total damage to plant; 0=no damage to plant)
Procedure, shortened: as §1

[5] = tested on: giant foxtail (Setaria faberi); assay: Test G Pre-Emergence Protocol; settings: Setaria faberi, pre-emergence, 312 h, evaluated after 13 days; for pest or weed control at 15.625 g/ha: 15.625 g ai/ha; for pest or weed control at 15.625 g/ha / pest or weed control at 250 g/ha: read-out: Foxtail, Giant damage rating (100=total damage to plant; 0=no damage to plant); for pest or weed control at 62.5 g/ha: 62.5 g ai/ha, 100=total damage to plant, 0=no damage to plant, read-out: plant damage rating, Foxtail, Giant; for pest or weed control at 250 g/ha: 250 g ai/ha
Procedure, shortened: as §1

[6] = tested on: barnyardgrass (Echinochloa crus-galli); assay: Test G Pre-Emergence Protocol; settings: Echinochloa crus-galli, pre-emergence, 312 h, evaluated after 13 days; for pest or weed control at 15.625 g/ha: 15.625 g ai/ha, read-out: Barnyard grass damage rating (100=total damage to plant; 0=no damage to plant); for pest or weed control at 62.5 g/ha: 62.5 g ai/ha, 100=total damage to plant, 0=no damage to plant, read-out: plant damage rating, Barnyardgrass; for pest or weed control at 250 g/ha: 250 g ai/ha, read-out: Barnyardgrass damage rating (100=total damage to plant; 0=no damage to plant)
Procedure, shortened: as §1

[7] = tested on: redroot pigweed (Amaranthus retroflexus); assay: Test G Post-Emergence Protocol; settings: Amaranthus retroflexus, post-emergence, 312 h; for pest or weed control at 15.625 g/ha: 15.625 g ai/ha, evaluated after 13 days (100=total damage to plant; 0=no damage to plant), read-out: Pigweed, Redroot damage rating; for pest or weed control at 62.5 g/ha: 62.5 g ai/ha, read-out: Pigweed, Redroot damage rating (100=total damage to plant; 0=no damage to plant); for pest or weed control at 62.5 g/ha / pest or weed control at 250 g/ha: evaluated after 13 days; for pest or weed control at 250 g/ha: 250 g ai/ha, read-out: damage to plant, Pigweed, Redroot (100=total damage to plant; 0=no damage to plant)
Procedure, shortened: (§2)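 A glasshouse post-emergence test: 8-day-old plants sprayed at 15.625, 62.5 or 250 g/ha, then grown at 24/16 °C day/night with 14 h light and 65% humidity. Damage rated 13 days later, 0–100.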

[8] = tested on: corn (Zea mays); assay: Test G Post-Emergence Protocol; settings: Zea mays, post-emergence, 312 h; for plant injury at 15.625 g/ha: 15.625 g ai/ha, evaluated after 13 days (100=total damage to plant; 0=no damage to plant), read-out: Corn damage rating; for plant injury at 62.5 g/ha: 62.5 g ai/ha, read-out: Corn damage rating (100=total damage to plant; 0=no damage to plant); for plant injury at 62.5 g/ha / plant injury at 250 g/ha: evaluated after 13 days; for plant injury at 250 g/ha: 250 g ai/ha, read-out: damage to plant, Corn (100=total damage to plant; 0=no damage to plant)
Procedure, shortened: as §2

[9] = tested on: velvetleaf (Abutilon theophrasti); assay: Test G Post-Emergence Protocol; settings: Abutilon theophrasti, post-emergence, 312 h; for pest or weed control at 15.625 g/ha: 15.625 g ai/ha, evaluated after 13 days (100=total damage to plant; 0=no damage to plant), read-out: Velvetleaf damage rating; for pest or weed control at 62.5 g/ha: 62.5 g ai/ha, read-out: Velvetleaf damage rating (100=total damage to plant; 0=no damage to plant); for pest or weed control at 62.5 g/ha / pest or weed control at 250 g/ha: evaluated after 13 days; for pest or weed control at 250 g/ha: 250 g ai/ha, read-out: damage to plant, Velvetleaf (100=total damage to plant; 0=no damage to plant)
Procedure, shortened: as §2

[10] = tested on: ivy-leaved morning glory (Ipomoea hederacea); assay: Test G Post-Emergence Protocol; settings: Ipomoea, post-emergence, 312 h; for pest or weed control at 15.625 g/ha: 15.625 g ai/ha, evaluated after 13 days (100=total damage to plant; 0=no damage to plant), read-out: Morningglory, Ivy-leaved damage rating; for pest or weed control at 62.5 g/ha: 62.5 g ai/ha, read-out: Morningglory, Ivy-leaved damage rating (100=total damage to plant; 0=no damage to plant); for pest or weed control at 62.5 g/ha / pest or weed control at 250 g/ha: evaluated after 13 days; for pest or weed control at 250 g/ha: 250 g ai/ha, read-out: damage to plant, Morningglory, Ivy-leaved (100=total damage to plant; 0=no damage to plant)
Procedure, shortened: as §2

[11] = tested on: giant foxtail (Setaria faberi); assay: Test G Post-Emergence Protocol; settings: Setaria faberi, post-emergence, 312 h; for pest or weed control at 15.625 g/ha: 15.625 g ai/ha, evaluated after 13 days (100=total damage to plant; 0=no damage to plant), read-out: Foxtail, Giant damage rating; for pest or weed control at 62.5 g/ha: 62.5 g ai/ha, read-out: Foxtail, Giant damage rating (100=total damage to plant; 0=no damage to plant); for pest or weed control at 62.5 g/ha / pest or weed control at 250 g/ha: evaluated after 13 days; for pest or weed control at 250 g/ha: 250 g ai/ha, read-out: damage to plant, Foxtail, Giant (100=total damage to plant; 0=no damage to plant)
Procedure, shortened: as §2

[12] = tested on: barnyardgrass (Echinochloa crus-galli); assay: Test G Post-Emergence Protocol; settings: Echinochloa crus-galli, post-emergence, 312 h; for pest or weed control at 15.625 g/ha: 15.625 g ai/ha, evaluated after 13 days (100=total damage to plant; 0=no damage to plant), read-out: Barnyardgrass damage rating; for pest or weed control at 62.5 g/ha: 62.5 g ai/ha, read-out: Barnyardgrass damage rating (100=total damage to plant; 0=no damage to plant); for pest or weed control at 62.5 g/ha / pest or weed control at 250 g/ha: evaluated after 13 days; for pest or weed control at 250 g/ha: 250 g ai/ha, read-out: damage to plant, Barnyardgrass (100=total damage to plant; 0=no damage to plant)
Procedure, shortened: as §2

Compound	pest or weed control at 15.625 g/ha [1] [%]	pest or weed control at 62.5 g/ha [1] [%]	pest or weed control at 250 g/ha [1] [%]	plant injury at 15.625 g/ha [2] [%]	plant injury at 62.5 g/ha [2] [%]	plant injury at 250 g/ha [2] [%]	pest or weed control at 15.625 g/ha [3] [%]	pest or weed control at 62.5 g/ha [3] [%]	pest or weed control at 250 g/ha [3] [%]	pest or weed control at 15.625 g/ha [4] [%]	pest or weed control at 62.5 g/ha [4] [%]	pest or weed control at 250 g/ha [4] [%]	pest or weed control at 15.625 g/ha [5] [%]	pest or weed control at 62.5 g/ha [5] [%]	pest or weed control at 250 g/ha [5] [%]	pest or weed control at 15.625 g/ha [6] [%]	pest or weed control at 62.5 g/ha [6] [%]	pest or weed control at 250 g/ha [6] [%]	pest or weed control at 15.625 g/ha [7] [%]	pest or weed control at 62.5 g/ha [7] [%]	also measured
CN1C[C@@H](c2ccc(C(F)(F)F)cc2)[C@H](C(=O)Nc2cn(C)nn2)C1=O (racemic) [Compound 1527]	0	0	0	0	0	0	0	0	0	0	0	0	0	0	0	0	0	0	0	0	pest or weed control at 250 g/ha [7]: 0%; plant injury at 15.625 g/ha [8]: 10%; plant injury at 62.5 g/ha [8]: 10%; plant injury at 250 g/ha [8]: 10%; pest or weed control at 15.625 g/ha [9]: 0%; pest or weed control at 62.5 g/ha [9]: 0%; pest or weed control at 250 g/ha [9]: 0%; pest or weed control at 15.625 g/ha [10]: 0%; pest or weed control at 62.5 g/ha [10]: 0%; pest or weed control at 250 g/ha [10]: 0%; pest or weed control at 15.625 g/ha [11]: 0%; pest or weed control at 62.5 g/ha [11]: 0%; pest or weed control at 250 g/ha [11]: 0%; pest or weed control at 15.625 g/ha [12]: 0%; pest or weed control at 62.5 g/ha [12]: 0%; pest or weed control at 250 g/ha [12]: 0%
Cc1ccc(NC(=O)[C@H]2C(=O)N(C)C[C@@H]2c2ccc(C(F)(F)F)cc2)c(C)c1C (racemic) [Compound 1448]	0	0	0	0	0	0	0	0	0	0	0	0	0	20	60	0	0	0	0	0	pest or weed control at 250 g/ha [7]: 30%; plant injury at 15.625 g/ha [8]: 0%; plant injury at 62.5 g/ha [8]: 0%; plant injury at 250 g/ha [8]: 10%; pest or weed control at 15.625 g/ha [9]: 0%; pest or weed control at 62.5 g/ha [9]: 0%; pest or weed control at 250 g/ha [9]: 0%; pest or weed control at 15.625 g/ha [10]: 0%; pest or weed control at 62.5 g/ha [10]: 0%; pest or weed control at 250 g/ha [10]: 0%; pest or weed control at 15.625 g/ha [11]: 0%; pest or weed control at 62.5 g/ha [11]: 0%; pest or weed control at 250 g/ha [11]: 0%; pest or weed control at 15.625 g/ha [12]: 0%; pest or weed control at 62.5 g/ha [12]: 0%; pest or weed control at 250 g/ha [12]: 0%
